Assay results published in paper PMC10366102, “Dose escalation and expansion cohorts in patients with advanced breast cancer in a Phase I study of the CDK7-inhibitor samuraciclib” (Nature Communications, 2023).
“Also recorded” adds a separate entry of the source.

Tests used:
pCDK1/2/3 = assay: Immunohistochemistry H-score in paired tumor biopsies, pCDK1/2/3; type: in vivo, human
Description: Per-protocol ctDNA samples were taken in Module 1B-1 at screening, C1D1, C2D1 and on D1 of alternating cycles from Cycle 3; in Module 2A at screening, C1D1 and at either C2D1 (240 mg) or C2D15 (360 mg) for mutational analysis[24],[33], (Supplementary Information). pPolII in lymphocytes and pPolII and pCDK1/2/3 in core needle tissue samples from patients recruited to the paired biopsy cohort were evaluated for on-target pharmacodynamic analyses. […]
pharmacodynamic effects in tumor tissue. […]
variability in H-score was observed between sections. […]
H-scores for pre-dose and on-study biopsies and summary statistics for the observed H-score when stained for pCDK1/2/3 and pPolII are shown in Supplementary Table 11. Significance was calculated using Student’s one-tailed paired t-test, where the alternative hypothesis was that on-study samples had

[1] = Module 2A trough PK of samuraciclib and fulvestrant; type: in vivo, human
Text: PK parameters were derived using standard non-compartmental methods.
o. Radionuclide Bone Scans, Whole Body should be performed at Screening. See also footnote a.
• If at Screening bone lesions were identified, scans will be repeated during the active treatment phase and during follow-up visits every 16 weeks (± 7 days) from Cycle 1 Day
1, and at the time of confirmation of CR.
• If no bone lesions were identified at Screening, bone scans will only be performed when clinically indicated (i.e., patient describes new or worsening bone pain or has
increasing alkaline phosphatase level or other signs and symptoms of new/progressing bone metastases) but are required at the time of confirmation of CR. New abnormalities
found on subsequent bone scans must be confirmed by CT scan with bone windows or MRI.
p. Adverse Event Reporting : Serious Adverse Events (SAEs) must be reported from the time the patient provides informed consent through and including 28 calendar days after the last
administration of the study drug. SAEs occurring after the active reporting period has ended should be reported if the investigator becomes aware of them. All SAEs that the investigator
believes have at least a reasonable possibility of being related to the study drugs are to be reported to the Sponsor. All AEs (serious and non-serious) should be recorded on the eCRF […]

Structure (SMILES): CC(C)c1cnn2c(NCc3ccccc3)cc(NC[C@H]3CCNC[C@@H]3O)nc12 [samuraciclib, Samuraciclib]
- pCDK1/2/3 H-Score, On study, average (pCDK1/2/3; Average 240mg OD patients, pre-dose 169): 102
- pCDK1/2/3 H-Score, On study, average (pCDK1/2/3; Average 360mg OD patients, pre-dose 119): 118
- pCDK1/2/3 H-Score, On study, average (pCDK1/2/3; Average all patients, pre-dose 144): 110
- pCDK1/2/3 H-Score, On study (pCDK1/2/3; HR+ breast cancer, breast biopsy, 360 mg OD, pre-dose 178): 112
- pCDK1/2/3 H-Score, On study (pCDK1/2/3; HR+ breast cancer, liver biopsy, 240 mg OD, pre-dose 125): 90
- pCDK1/2/3 H-Score, On study (pCDK1/2/3; HR+ breast cancer, liver biopsy, 240 mg OD, pre-dose 234): 151
- pCDK1/2/3 H-Score, On study (pCDK1/2/3; HR+ breast cancer, liver biopsy, 360 mg OD, pre-dose 89): 128
- pCDK1/2/3 H-Score, On study (pCDK1/2/3; HR+ breast cancer, liver biopsy, 360 mg OD, pre-dose 91): 113
- pCDK1/2/3 H-Score, On study (pCDK1/2/3; Rhabdomyosarcoma, axilla biopsy, 240 mg OD, pre-dose 148): 64
- Levels of pCDK1/2/3 in tumors (pCDK1/2/3; paired biopsy cohort): showed a reduction, although this did not reach statistical significance
- Interaction between samuraciclib and fulvestrant PK [1]: no fulvestrant interaction; also recorded: did not indicate an interaction; also recorded: No clinical PK interactions
